How the values were obtained:
Format in all cases: cell-based
[1] = molecular target: T1, OATP4C1 (organic anion-transporting polypeptide 4C1) (Homo sapiens, UniProt Q6ZQN7); assay: inhibition of T3 uptake in OATP4C1/MDCKII cells, LC/MS/MS, mock subtracted
T1 construct: gene SLCO4C1; stably expressed in MDCKII cells (G418), butyrate-induced
T1 sequence (Q6ZQN7 1-724): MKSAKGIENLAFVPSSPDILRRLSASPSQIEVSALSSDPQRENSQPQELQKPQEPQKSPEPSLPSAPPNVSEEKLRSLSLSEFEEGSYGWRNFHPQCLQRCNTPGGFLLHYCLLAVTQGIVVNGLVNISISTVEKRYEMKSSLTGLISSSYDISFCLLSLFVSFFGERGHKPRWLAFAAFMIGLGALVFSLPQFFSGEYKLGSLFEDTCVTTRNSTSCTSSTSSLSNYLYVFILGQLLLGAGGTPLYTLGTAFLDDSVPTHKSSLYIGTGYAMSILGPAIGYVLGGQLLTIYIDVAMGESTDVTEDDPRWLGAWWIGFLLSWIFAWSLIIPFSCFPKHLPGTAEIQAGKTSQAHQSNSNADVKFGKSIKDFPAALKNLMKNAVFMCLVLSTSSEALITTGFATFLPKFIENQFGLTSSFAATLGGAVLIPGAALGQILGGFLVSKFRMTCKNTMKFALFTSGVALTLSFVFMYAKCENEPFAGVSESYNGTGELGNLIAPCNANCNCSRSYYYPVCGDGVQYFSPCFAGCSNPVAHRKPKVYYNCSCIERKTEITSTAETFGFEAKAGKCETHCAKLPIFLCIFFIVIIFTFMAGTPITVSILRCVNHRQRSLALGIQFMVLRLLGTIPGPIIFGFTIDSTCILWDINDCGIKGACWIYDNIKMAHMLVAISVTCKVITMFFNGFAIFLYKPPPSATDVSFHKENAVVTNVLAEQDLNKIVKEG
Text: inhibition of T3 uptake in OATP4C1/MDCKII cells, LC/MS/MS, mock subtracted on OATP4C1 (organic anion-transporting polypeptide 4C1)

[2] = molecular target: T1, OATP4C1 (organic anion-transporting polypeptide 4C1); assay: inhibition of T3 uptake in OATP4C1/MDCKII cells; Ki calculated from IC50 as IC50/([…]+[S]/Km)
[3] = molecular target: T1, OATP4C1 (organic anion-transporting polypeptide 4C1); assay: inhibition of T3 uptake in OATP4C1/MDCKII cells, LC/MS/MS, mock subtracted; conditions: MDCK-II

IC50 [1]	Ki [2]	SMILES	inhibition at 50 µM [3]
12.3 ± 0.891 µM	10.5 ± 0.762 µM	C[C@H](CCC(=O)NCCS(=O)(=O)O)[C@H]1CC[C@H]2[C@@H]3CC[C@@H]4C[C@H](O)CC[C@]4(C)[C@H]3CC[C@]12C [TLCA]	–
6.12 ± 1.21 µM	5.23 ± 1.03 µM	C[C@H](CCC(=O)O)[C@H]1CC[C@H]2[C@@H]3CC[C@@H]4C[C@H](O)CC[C@]4(C)[C@H]3CC[C@]12C [LCA]	–
–	–	C[C@H](CCC(=O)NCCS(=O)(=O)O)[C@H]1CC[C@H]2[C@@H]3CC[C@@H]4C[C@H](OS(=O)(=O)O)CC[C@]4(C)[C@H]3C[C@H](O)[C@]12C [TDCA-3S]	49.1%

SMILES	IC50 [1]	Ki [2]	inhibition at 50 µM [3]
C[C@H](CCC(=O)NCC(=O)O)[C@H]1CC[C@H]2[C@@H]3CC[C@@H]4C[C@H](O)CC[C@]4(C)[C@H]3CC[C@]12C [GLCA]	9.9 ± 0.475 µM	8.46 ± 0.406 µM	–

— article PMC9369231, “Bile Acid–Drug Interaction via Organic Anion-Transporting Polypeptide 4C1 Is a Potential Mechanism of Altered Pharmacokinetics of Renally Excreted Drugs” (International Journal of Molecular Sciences, 2022)
